These results are taken from BindingDB's records for patent US10548896 (Celgene Quanticel Research, 2020).

The target in this test is Lysine-specific histone demethylase 1A (Homo sapiens, UniProt O60341). Kind of test: In Vitro Enzyme Inhibition Assay - LSD-1.

`CN(C)C1CCN(c2nc(-c3ccc(C#N)c(F)c3)c(C3=CC4C=NN(C)C4C=C3)c(=O)n2C)CC1` (stereo unspecified) [US10548896, Example 72] gave a concentration for half-maximal inhibition (IC50) of less than 100 nM.
